Experiments:
glioblastoma mutiformae = assay type: in vivo
Procedure: An acoustically active composition is prepared in a 2 mL vial from an aqueous mixture of phosphatidylcholine vesicles filled with perfluorobutane gas in a manner as described above. The resulting compositions contains about 2×10^9 gas filled vesicles. The vial of gas filled vesicles will be diluted into a 100 mL volume of normal saline such that the final gas filled vesicle concentration is about 2×10^7 gas filled vesicles/mL.
The scalp of a patient suffering from glioblastoma mutiformae will be shaved prior to the procedure. The patient will receive an intravenous infusion of 200 mg/M^2 of Carmustine (BCNU) over a period of about 30 minutes. Fifteen minutes after initiating IV injection of Carmustine, IV infusion of the gas filled vesicle composition will be initiated at a rate of about 2 mL per minute (or about 4×10^7 gas filled vesicles per minute). One minute after initiation of infusion of gas filled vesicles, a 200-kilohertz ultrasound transducer will be turned on, and using an acoustic gel, it will be applied to the shaved area of the scalp. The transducer is focused on the glioblastoma. The energy of the transducer will be adjusted to a peak negative pressure of about 2.5 megaPascals and maintained as such for about 30 minutes (for about 15 minutes after infusion of Carmustine has ceased). The infusion of gas filled vesicles will then be terminated.

prostate cancer = assay: Delivery of a radiation sensitizer to treat prostate cancer with air-filled polylactic acid microspheres and ultrasound; conditions: 100 mg/m^2 IV over 1 hour, microspheres 5×10^7/minute, endorectal ultrasound 1.5 MegaPascals for 30 minutes

| Compound | tumor control (glioblastoma mutiformae; 200 mg/M^2 IV over about 30 minutes, gas filled vesicles about 2 mL per minute, 200-kilohertz ultrasound, 2.5 megaPascals) | delivery of the drug into the tumor tissue (glioblastoma mutiformae; in vivo, iv) | delivery of drug within the prostate gland (prostate cancer) | tumor control (prostate cancer; then radiation therapy) |
| --- | --- | --- | --- | --- |
| O=NN(CCCl)C(=O)NCCCl [Carmustine] | improved tumor control | enhanced delivery of the drug into the tumor tissue | – | – |
| CC(=O)O[C@H]1C(=O)[C@@]2(C)[C@H]([C@H](OC(=O)c3ccccc3)[C@]3(O)C[C@H](OC(=O)[C@H](O)[C@@H](NC(=O)c4ccccc4)c4ccccc4)C(C)=C1C3(C)C)[C@]1(OC(C)=O)CO[C@@H]1C[C@@H]2O [Paclitaxel] | – | – | increased delivery of drug within the prostate gland | Improved tumor control |

Reference: patent US20010051131A1, “METHODS FOR DELIVERING BIOACTIVE AGENTS” (priority 1996, published 2001)
